Data reported in patent US20250154686A1, “COMPOUND LIBRARY” (CHUGAI SEIYAKU KABUSHIKI KAISHA, priority 2021, published 2025).

Target: T1, Bcl-2 protein (Recombinant Human Bcl-2 Protein) (Homo sapiens, UniProt P10415)
T1 construct: purchased Novus Biologicals NBP2-34889
Assay: AS-MS evaluation of binding of the Example 4 mixture library (1200 compounds/well) to Bcl-2, ASMS ratio (%)
Details: AS-MS, Example 4 mixture library; for ASMS ratio (%) n = 1: Bcl-2, replicate n = 1; for ASMS ratio (%) n = 2: Bcl-2, replicate n = 2
How it was run: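 Affinity-selection MS: after spin-column size exclusion and organic extraction, LC/MS signals give an ASMS ratio (%), referenced to protein-free samples with and without column treatment. Binding step combined 20 μM human Bcl-2 with the 1200-compound pool at 20 nM per compound, 1 h, 23° C., dark, pH 7.4 Tris-HCl/NaCl/Tween-20/DTT.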

T1 sequence (P10415 whole entry): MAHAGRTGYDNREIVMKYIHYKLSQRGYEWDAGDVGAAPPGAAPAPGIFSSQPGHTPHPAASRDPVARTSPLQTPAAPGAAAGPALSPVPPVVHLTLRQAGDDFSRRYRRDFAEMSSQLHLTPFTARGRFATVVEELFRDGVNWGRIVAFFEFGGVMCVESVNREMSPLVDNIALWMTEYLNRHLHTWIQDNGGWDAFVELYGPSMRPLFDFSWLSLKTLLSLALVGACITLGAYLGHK

| SMILES | ASMS ratio (%) n = 1 [%] | ASMS ratio (%) n = 2 [%] |
| --- | --- | --- |
| CCOc1cccc(-c2ccc(C(=O)N3CCN(c4ccc(C(=O)NS(=O)(=O)c5ccc(NCCSc6ccccc6)c(C(F)(F)F)c5)cc4)CC3)c3ccccc23)c1 [Compound B2R035-01] | 8.3 | 0.9 |
| CCOc1cncc(-c2ccc(C(=O)N3CCN(c4ccc(C(=O)NS(=O)(=O)c5ccc(NCCSc6ccccc6)c(C(F)(F)F)c5)cc4)CC3)c3ccccc23)c1 [Compound B2R036-01, 4-[4-[4-(5-Ethoxypyridin-3-yl)naphthalene-1-carbonyl]piperazin-1-yl]-N-[4-(2-phenylsulfanylethylamino)-3-(trifluoromethyl)phenyl]sulfonylbenzamide] | 3.2 | −0.8 |
| CCOc1cccc(-c2cc(C(=O)N3CCN(c4ccc(C(=O)NS(=O)(=O)c5ccc(NCCSc6ccccc6)c(C(F)(F)F)c5)cc4)CC3)cc(C(C)(C)C)c2)c1 [Compound B2R037-01, 4-[4-[3-tert-Butyl-5-(3-ethoxyphenyl)benzoyl]piperazin-1-yl]-N-[4-(2-phenylsulfanylethylamino)-3-(trifluoromethyl)phenyl]sulfonylbenzamide] | 6.3 | −7.0 |
| CCOc1cncc(-c2cc(C(=O)N3CCN(c4ccc(C(=O)NS(=O)(=O)c5ccc(NCCSc6ccccc6)c(C(F)(F)F)c5)cc4)CC3)cc(C(C)(C)C)c2)c1 [Compound B2R038-01, 4-[4-[3-tert-Butyl-5-(5-ethoxypyridin-3-yl)benzoyl]piperazin-1-yl]-N-[4-(2-phenylsulfanylethylamino)-3-(trifluoromethyl)phenyl]sulfonylbenzamide] | 7.1 | −6.0 |
| CCOc1cccc(-c2cc(C(=O)N3CCN(c4ccc(C(=O)NS(=O)(=O)c5ccc(NCCSc6ccccc6)c(C(F)(F)F)c5)cc4)CC3)cc(C(F)(F)F)c2)c1 [Compound B2R039-01, 4-[4-[3-(3-Ethoxyphenyl)-5-(trifluoromethyl)benzoyl]piperazin-1-yl]-N-[4-(2-phenylsulfanylethylamino)-3-(trifluoromethyl)phenyl]sulfonylbenzamide] | 9.7 | −4.8 |
| CCOc1cncc(-c2cc(C(=O)N3CCN(c4ccc(C(=O)NS(=O)(=O)c5ccc(NCCSc6ccccc6)c(C(F)(F)F)c5)cc4)CC3)cc(C(F)(F)F)c2)c1 [Compound B2R040-01, 4-[4-[3-(5-Ethoxypyridin-3-yl)-5-(trifluoromethyl)benzoyl]piperazin-1-yl]-N-[4-(2-phenylsulfanylethylamino)-3-(trifluoromethyl)phenyl]sulfonylbenzamide] | 2.6 | 0.2 |
| CCOc1cccc(C#Cc2cc(C(=O)N3CCN(c4ccc(C(=O)NS(=O)(=O)c5ccc(NCCSc6ccccc6)c(C(F)(F)F)c5)cc4)CC3)cc(C(F)(F)F)c2)c1 [Compound B2R041-01, 4-[4-[3-[2-(3-Ethoxyphenyl)ethynyl]-5-(trifluoromethyl)benzoyl]piperazin-1-yl]-N-[4-(2-phenylsulfanylethylamino)-3-(trifluoromethyl)phenyl]sulfonylbenzamide] | 18.0 | 0.0 |
| CCOc1cncc(C#Cc2cc(C(=O)N3CCN(c4ccc(C(=O)NS(=O)(=O)c5ccc(NCCSc6ccccc6)c(C(F)(F)F)c5)cc4)CC3)cc(C(F)(F)F)c2)c1 [Compound B2R042-01, 4-[4-[3-[2-(5-Ethoxypyridin-3-yl)ethynyl]-5-(trifluoromethyl)benzoyl]piperazin-1-yl]-N-[4-(2-phenylsulfanylethylamino)-3-(trifluoromethyl)phenyl]sulfonylbenzamide] | 3.4 | 6.0 |
| CCOc1cccc(-c2cnn(-c3cc(C(=O)N4CCN(c5ccc(C(=O)NS(=O)(=O)c6ccc(NCCSc7ccccc7)c(C(F)(F)F)c6)cc5)CC4)cc(C(F)(F)F)c3)c2)c1 [Compound B2R043-01, 4-[4-[3-[4-(3-Ethoxyphenyl)pyrazol-1-yl]-5-(trifluoromethyl)benzoyl]piperazin-1-yl]-N-[4-(2-phenylsulfanylethylamino)-3-(trifluoromethyl)phenyl]sulfonylbenzamide] | 3.4 | −9.0 |
| CCOc1cncc(-c2cnn(-c3cc(C(=O)N4CCN(c5ccc(C(=O)NS(=O)(=O)c6ccc(NCCSc7ccccc7)c(C(F)(F)F)c6)cc5)CC4)cc(C(F)(F)F)c3)c2)c1 [Compound B2R044-01, 4-[4-[3-[4-(5-Ethoxypyridin-3-yl)pyrazol-1-yl]-5-(trifluoromethyl)benzoyl]piperazin-1-yl]-N-[4-(2-phenylsulfanylethylamino)-3-(trifluoromethyl)phenyl]sulfonylbenzamide] | −3.7 | −4.1 |
| CCOc1cccc(-c2ccccc2CN2CCN(c3ccc(C(=O)NS(=O)(=O)c4ccc(NCCSc5ccccc5)c(C(F)(F)F)c4)cc3)CC2)c1 [Compound B2R045-01, 4-[4-[[2-(3-Ethoxyphenyl)phenyl]methyl]piperazin-1-yl]-N-[4-(2-phenylsulfanylethylamino)-3-(trifluoromethyl)phenyl]sulfonylbenzamide] | 4.8 | −3.4 |
| CCOc1cncc(-c2ccccc2CN2CCN(c3ccc(C(=O)NS(=O)(=O)c4ccc(NCCSc5ccccc5)c(C(F)(F)F)c4)cc3)CC2)c1 [Compound B2R046-01, 4-[4-[[2-(5-ethoxypyridin-3-yl)phenyl]methyl]piperazin-1-yl]-N-[4-(2-phenylsulfanylethylamino)-3-(trifluoromethyl)phenyl]sulfonylbenzamide] | −0.2 | 0.0 |
| CCOc1cccc(-c2ccc(CN3CCN(c4ccc(C(=O)NS(=O)(=O)c5ccc(NCCSc6ccccc6)c(C(F)(F)F)c5)cc4)CC3)cc2C)c1 [Compound B2R047-01, 4-[4-[[4-(3-Ethoxyphenyl)-3-methylphenyl]methyl]piperazin-1-yl]-N-[4-(2-phenylsulfanylethylamino)-3-(trifluoromethyl)phenyl]sulfonylbenzamide] | 6.6 | −7.8 |

Now from value to molecule:

| ASMS ratio (%) n = 1 [%] | ASMS ratio (%) n = 2 [%] | SMILES |
| --- | --- | --- |
| 9.2 | 7.5 | CCOc1cncc(-c2ccc(CN3CCN(c4ccc(C(=O)NS(=O)(=O)c5ccc(NCCSc6ccccc6)c(C(F)(F)F)c5)cc4)CC3)cc2C)c1 [Compound B2R048-01] |
| 7.5 | −5.5 | CCOc1cccc(-c2ccc(CN3CCN(c4ccc(C(=O)NS(=O)(=O)c5ccc(NCCSc6ccccc6)c(C(F)(F)F)c5)cc4)CC3)c(CC)c2)c1 [Compound B2R049-01, 4-[4-[[4-(3-Ethoxyphenyl)-2-ethylphenyl]methyl]piperazin-1-yl]-N-[4-(2-phenylsulfanylethylamino)-3-(trifluoromethyl)phenyl]sulfonylbenzamide] |
| 0.0 | 0.0 | CCOc1cncc(-c2ccc(CN3CCN(c4ccc(C(=O)NS(=O)(=O)c5ccc(NCCSc6ccccc6)c(C(F)(F)F)c5)cc4)CC3)c(CC)c2)c1 [Compound B2R050-01] |
| 12.7 | −1.8 | CCOc1cccc(-c2ccc(CN3CCN(c4ccc(C(=O)NS(=O)(=O)c5ccc(NCCSc6ccccc6)c(C(F)(F)F)c5)cc4)CC3)cc2F)c1 [Compound B2R051-01, 4-[4-[[4-(3-Ethoxyphenyl)-3-fluorophenyl]methyl]piperazin-1-yl]-N-[4-(2-phenylsulfanylethylamino)-3-(trifluoromethyl)phenyl]sulfonylbenzamide] |
| 0.0 | −7.4 | CCOc1cncc(-c2ccc(CN3CCN(c4ccc(C(=O)NS(=O)(=O)c5ccc(NCCSc6ccccc6)c(C(F)(F)F)c5)cc4)CC3)cc2F)c1 [Compound B2R052-01, 4-[4-[[4-(5-Ethoxypyridin-3-yl)-3-fluorophenyl]methyl]piperazin-1-yl]-N-[4-(2-phenylsulfanylethylamino)-3-(trifluoromethyl)phenyl]sulfonylbenzamide] |
| −15.0 | 0.0 | CCOc1cccc(-c2ccc(CN3CCN(c4ccc(C(=O)NS(=O)(=O)c5ccc(NCCSc6ccccc6)c(C(F)(F)F)c5)cc4)CC3)c(OC)c2)c1 [Compound B2R053-01, 4-[4-[[4-(3-Ethoxyphenyl)-2-methoxyphenyl]methyl]piperazin-1-yl]-N-[4-(2-phenylsulfanylethylamino)-3-(trifluoromethyl)phenyl]sulfonylbenzamide] |
| 3.3 | −0.8 | CCOc1cncc(-c2ccc(CN3CCN(c4ccc(C(=O)NS(=O)(=O)c5ccc(NCCSc6ccccc6)c(C(F)(F)F)c5)cc4)CC3)c(OC)c2)c1 [Compound B2R054-01, 4-[4-[[4-(5-Ethoxypyridin-3-yl)-2-methoxyphenyl]methyl]piperazin-1-yl]-N-[4-(2-phenylsulfanylethylamino)-3-(trifluoromethyl)phenyl]sulfonylbenzamide] |
| −3.3 | 6.3 | CCOc1cccc(-c2cc(CN3CCN(c4ccc(C(=O)NS(=O)(=O)c5ccc(NCCSc6ccccc6)c(C(F)(F)F)c5)cc4)CC3)cc(OCC)c2)c1 [Compound B2R055-01, 4-[4-[[3-Ethoxy-5-(3-ethoxyphenyl)phenyl]methyl]piperazin-1-yl]-N-[4-(2-phenylsulfanylethylamino)-3-(trifluoromethyl)phenyl]sulfonylbenzamide] |
|  | −63.9 | CCOc1cncc(-c2cc(CN3CCN(c4ccc(C(=O)NS(=O)(=O)c5ccc(NCCSc6ccccc6)c(C(F)(F)F)c5)cc4)CC3)cc(OCC)c2)c1 [Compound B2R056-01, 4-[4-[[3-Ethoxy-5-(5-ethoxypyridin-3-yl)phenyl]methyl]piperazin-1-yl]-N-[4-(2-phenylsulfanylethylamino)-3-(trifluoromethyl)phenyl]sulfonylbenzamide] |
